# Patent US20070128217A1 (priority 2003, published 2007)
# What was measured:
# [1] = test system: control sera (pooled serum of ten healthy LUMC hospital workers; commercial negative donor pooled serum from the Dutch bloodbank); assay type: binding, human; parameters: Binding of Control serum LUMC to linear peptides / Binding of Control serum Blood-bank to linear peptides / Binding of Control serum LUMC to looped peptides / Binding of Control Serum Blood-Bank to Looped peptides / Binding of Control serum LUMC to linear peptides of the protein M of SARS-CoV Urbani / Binding of Control serum Blood-bank to linear peptides of the protein M of SARS-CoV Urbani / Binding of Control serum LUMC to looped peptides of the protein M of SARS-CoV Urbani / Binding of Control Serum Blood-Bank to Looped peptides of the protein M of SARS-CoV Urbani: unit not given here
# [2] = test system: antibodies in sera from SARS patients (sera 1a, 1b, 2, 6, 37, 62, London, SARS-yellow, SARS-green); assay type: binding, human; parameters: Binding of serum 6 to linear peptides of protein X1 of SARS-CoV Urbani / Binding of serum 37 to linear peptides of protein X1 of SARS-CoV Urbani / Binding of serum 6 to looped/cyclic peptide (PEPSCAN-ELISA) / Binding of serum 37 to looped/cyclic peptide (PEPSCAN-ELISA) / Binding of serum 37 to looped/cyclic peptides of protein X1 of SARS-CoV Urbani / Binding of serum 6 to linear peptides of protein X2 / Binding of serum 37 to linear peptides of protein X2 / Binding of serum 37 to looped/cyclic peptides of protein X2 of SARS-CoV Urbani / Binding of serum 6 to linear peptides of protein M of SARS-CoV Urbani / Binding of serum 37 to linear peptides of protein M of SARS-CoV Urbani / Binding of serum 6 to looped/cyclic peptides of protein M of SARS-CoV Urbani / Binding of serum 37 to looped/cyclic peptides of protein M of SARS-CoV Urbani / Binding of serum 6 to linear peptides of protein X3 of SARS-CoV Urbani / Binding of serum 37 to linear peptides of protein X3 of SARS-CoV Urbani / Binding of serum 37 to looped/cyclic peptides of protein X3 of SARS-CoV Urbani / Binding of serum 6 to linear peptides of protein X4 of SARS-CoV Urbani / Binding of serum 37 to linear peptides of protein X4 of SARS-CoV Urbani / Binding of serum 37 to looped/cyclic peptides of protein X4 of SARS-CoV Urbani / Binding of serum 6 to linear peptides of protein X5 of SARS-CoV Urbani / Binding of serum 37 to linear peptides of protein X5 of SARS-CoV Urbani / Binding of serum 37 to looped/cyclic peptides of protein X5 of SARS-CoV Urbani / Binding of serum 6 to linear peptides of protein N of SARS-CoV Urbani / Binding of serum 37 to linear peptides of protein N of SARS-CoV Urbani / Binding of serum 6 to linear peptide (PEPSCAN-ELISA) / Binding of serum 1a to looped/cyclic peptides of protein N of SARS-CoV Urbani / Binding of serum 1b to looped/cyclic peptides of protein N of SARS-CoV Urbani / Binding of serum 2 to looped/cyclic peptides of protein N of SARS-CoV Urbani / Binding of serum 6 to looped/cyclic peptides of protein N of SARS-CoV Urbani / Binding of serum 37 to looped/cyclic peptides of protein N of SARS-CoV Urbani / Binding of serum 62 to looped/cyclic peptides of protein N of SARS-CoV Urbani / Binding of serum London to looped/cyclic peptides of protein N of SARS-CoV Urbani / Binding of serum SARS-green to looped/cyclic peptides of protein N of SARS-CoV Urbani: unit not given here
# [3] = test system: recombinant human anti-SARS-CoV antibody 03-018; assay type: binding; parameters: Binding of antibody 03-018 to linear peptides of the N protein of SARS-CoV Urbani / Binding of antibody 03-018 to looped/cyclic peptides of the N protein of SARS-CoV Urbani: unit not given here
# [4] = test system: rabbit serum obtained by immunizing a rabbit with the SARS-CoV strain Frankfurt 1; assay type: binding; parameters: Binding of a rabbit serum to linear peptides / Binding of a rabbit serum to looped peptides / Rabbit serum linear peptides / Rabbit serum looped peptides / Binding of a rabbit serum to linear peptides of protein N of SARS-CoV Urbani (Rabbit serum linear peptides) / Binding of a rabbit serum to looped/cyclic peptides of protein N of SARS-CoV Urbani (Rabbit serum looped peptides): unit not given here
sequence,measurement,setting,value
NNQNGGRNGARPKQR,Binding of Control Serum Blood-Bank to Looped peptides,[1],0.5
same,Binding of Control serum Blood-bank to linear peptides,[1],0.9
same,Binding of Control serum LUMC to linear peptides,[1],0.8
same,Binding of Control serum LUMC to looped peptides,[1],0.6
same,Binding of serum 1a to linear peptides of protein N of SARS-CoV Urbani,[2],0.2
same,Binding of serum 1a to looped/cyclic peptides of protein N of SARS-CoV Urbani,[2],0.2
same,Binding of serum 1b to linear peptides of protein N of SARS-CoV Urbani,[2],0.2
same,Binding of serum 1b to looped/cyclic peptides of protein N of SARS-CoV Urbani,[2],0.1
same,Binding of serum 2 to linear peptides of protein N of SARS-CoV Urbani,[2],0.2
same,Binding of serum 2 to looped/cyclic peptides of protein N of SARS-CoV Urbani,[2],0.2
same,Binding of serum 6 to linear peptides of protein N of SARS-CoV Urbani,[2],0.3
same,Binding of serum 6 to looped/cyclic peptides of protein N of SARS-CoV Urbani,[2],0.2
same,Binding of serum 37 to linear peptides of protein N of SARS-CoV Urbani,[2],0.7
same,Binding of serum 37 to looped/cyclic peptides of protein N of SARS-CoV Urbani,[2],0.4
same,Binding of serum 62 to linear peptides of protein N of SARS-CoV Urbani,[2],0.8
same,Binding of serum 62 to looped/cyclic peptides of protein N of SARS-CoV Urbani,[2],0.3
same,Binding of serum London to linear peptides of protein N of SARS-CoV Urbani,[2],0.5
same,Binding of serum London to looped/cyclic peptides of protein N of SARS-CoV Urbani,[2],0.3
same,Binding of serum SARS-green to linear peptides of protein N of SARS-CoV Urbani,[2],0.5
same,Binding of serum SARS-green to looped/cyclic peptides of protein N of SARS-CoV Urbani,[2],0.1
same,Binding of serum SARS-yellow to linear peptides of protein N of SARS-CoV Urbani,[2],0.6
same,Binding of serum SARS-yellow to looped/cyclic peptides of protein N of SARS-CoV Urbani,[2],0.3
same,Binding of antibody 03-018 to linear peptides of the N protein of SARS-CoV Urbani,[3],0.2
same,Binding of antibody 03-018 to looped/cyclic peptides of the N protein of SARS-CoV Urbani,[3],0.2
same,Binding of a rabbit serum to linear peptides of protein N of SARS-CoV Urbani (Rabbit serum linear peptides),[4],0.3
same,Binding of a rabbit serum to looped/cyclic peptides of protein N of SARS-CoV Urbani (Rabbit serum looped peptides),[4],0.7
NNTASWFTALTQHGK,Binding of Control Serum Blood-Bank to Looped peptides,[1],0.5
same,Binding of Control serum Blood-bank to linear peptides,[1],0.6
same,Binding of Control serum LUMC to linear peptides,[1],0.7
same,Binding of Control serum LUMC to looped peptides,[1],0.4
same,Binding of serum 1a to linear peptides of protein N of SARS-CoV Urbani,[2],0.2
same,Binding of serum 1a to looped/cyclic peptides of protein N of SARS-CoV Urbani,[2],0.2
same,Binding of serum 1b to linear peptides of protein N of SARS-CoV Urbani,[2],0.1
same,Binding of serum 1b to looped/cyclic peptides of protein N of SARS-CoV Urbani,[2],0.1
same,Binding of serum 2 to linear peptides of protein N of SARS-CoV Urbani,[2],0.2
same,Binding of serum 2 to looped/cyclic peptides of protein N of SARS-CoV Urbani,[2],0.2
same,Binding of serum 6 to linear peptides of protein N of SARS-CoV Urbani,[2],0.1
same,Binding of serum 6 to looped/cyclic peptides of protein N of SARS-CoV Urbani,[2],0.1
same,Binding of serum 37 to linear peptides of protein N of SARS-CoV Urbani,[2],0.7
same,Binding of serum 37 to looped/cyclic peptides of protein N of SARS-CoV Urbani,[2],0.4
same,Binding of serum 62 to linear peptides of protein N of SARS-CoV Urbani,[2],0.6
same,Binding of serum 62 to looped/cyclic peptides of protein N of SARS-CoV Urbani,[2],0.2
same,Binding of serum London to linear peptides of protein N of SARS-CoV Urbani,[2],0.4
same,Binding of serum London to looped/cyclic peptides of protein N of SARS-CoV Urbani,[2],0.2
same,Binding of serum SARS-green to linear peptides of protein N of SARS-CoV Urbani,[2],0.4
same,Binding of serum SARS-green to looped/cyclic peptides of protein N of SARS-CoV Urbani,[2],0.1
same,Binding of serum SARS-yellow to linear peptides of protein N of SARS-CoV Urbani,[2],0.5
same,Binding of serum SARS-yellow to looped/cyclic peptides of protein N of SARS-CoV Urbani,[2],0.1
same,Binding of antibody 03-018 to linear peptides of the N protein of SARS-CoV Urbani,[3],0.1
same,Binding of antibody 03-018 to looped/cyclic peptides of the N protein of SARS-CoV Urbani,[3],0.2
same,Binding of a rabbit serum to linear peptides of protein N of SARS-CoV Urbani (Rabbit serum linear peptides),[4],0.1
same,Binding of a rabbit serum to looped/cyclic peptides of protein N of SARS-CoV Urbani (Rabbit serum looped peptides),[4],0.3
NPNNNAATVLQLPQG,Binding of Control Serum Blood-Bank to Looped peptides,[1],0.8
same,Binding of Control serum Blood-bank to linear peptides,[1],0.9
same,Binding of Control serum LUMC to linear peptides,[1],0.9
same,Binding of Control serum LUMC to looped peptides,[1],0.9
same,Binding of serum 1a to linear peptides of protein N of SARS-CoV Urbani,[2],0.4
same,Binding of serum 1a to looped/cyclic peptides of protein N of SARS-CoV Urbani,[2],0.4
same,Binding of serum 1b to linear peptides of protein N of SARS-CoV Urbani,[2],0.2
same,Binding of serum 1b to looped/cyclic peptides of protein N of SARS-CoV Urbani,[2],0.4
same,Binding of serum 2 to linear peptides of protein N of SARS-CoV Urbani,[2],0.4
same,Binding of serum 2 to looped/cyclic peptides of protein N of SARS-CoV Urbani,[2],0.5
same,Binding of serum 6 to linear peptides of protein N of SARS-CoV Urbani,[2],0.3
same,Binding of serum 6 to looped/cyclic peptides of protein N of SARS-CoV Urbani,[2],0.3
same,Binding of serum 37 to linear peptides of protein N of SARS-CoV Urbani,[2],0.8
same,Binding of serum 37 to looped/cyclic peptides of protein N of SARS-CoV Urbani,[2],0.9
same,Binding of serum 62 to linear peptides of protein N of SARS-CoV Urbani,[2],0.9
same,Binding of serum 62 to looped/cyclic peptides of protein N of SARS-CoV Urbani,[2],0.9
same,Binding of serum London to linear peptides of protein N of SARS-CoV Urbani,[2],0.8
same,Binding of serum London to looped/cyclic peptides of protein N of SARS-CoV Urbani,[2],0.5
same,Binding of serum SARS-green to linear peptides of protein N of SARS-CoV Urbani,[2],0.6
same,Binding of serum SARS-green to looped/cyclic peptides of protein N of SARS-CoV Urbani,[2],0.7
same,Binding of serum SARS-yellow to linear peptides of protein N of SARS-CoV Urbani,[2],0.8
same,Binding of serum SARS-yellow to looped/cyclic peptides of protein N of SARS-CoV Urbani,[2],0.5
same,Binding of antibody 03-018 to linear peptides of the N protein of SARS-CoV Urbani,[3],0.1
same,Binding of antibody 03-018 to looped/cyclic peptides of the N protein of SARS-CoV Urbani,[3],0.3
same,Binding of a rabbit serum to linear peptides of protein N of SARS-CoV Urbani (Rabbit serum linear peptides),[4],0.1
same,Binding of a rabbit serum to looped/cyclic peptides of protein N of SARS-CoV Urbani (Rabbit serum looped peptides),[4],0.3
NSRNSTPGSSRGNSP,Binding of Control Serum Blood-Bank to Looped peptides,[1],0.7
same,Binding of Control serum Blood-bank to linear peptides,[1],0.9
same,Binding of Control serum LUMC to linear peptides,[1],0.7
same,Binding of Control serum LUMC to looped peptides,[1],0.7
same,Binding of serum 1a to linear peptide (PEPSCAN-ELISA),[2],0.6
same,Binding of serum 1a to looped/cyclic peptides of protein N of SARS-CoV Urbani,[2],0.6
same,Binding of serum 1b to linear peptide (PEPSCAN-ELISA),[2],0.4
same,Binding of serum 1b to looped/cyclic peptides of protein N of SARS-CoV Urbani,[2],0.5
same,Binding of serum 2 to linear peptide (PEPSCAN-ELISA),[2],0.3
same,Binding of serum 2 to looped/cyclic peptides of protein N of SARS-CoV Urbani,[2],0.5
same,Binding of serum 6 to linear peptide (PEPSCAN-ELISA),[2],0.4
same,Binding of serum 6 to looped/cyclic peptides of protein N of SARS-CoV Urbani,[2],0.4
same,Binding of serum 37 to linear peptide (PEPSCAN-ELISA),[2],0.9
same,Binding of serum 37 to looped/cyclic peptides of protein N of SARS-CoV Urbani,[2],0.6
same,Binding of serum 62 to linear peptide (PEPSCAN-ELISA),[2],0.9
same,Binding of serum 62 to looped/cyclic peptides of protein N of SARS-CoV Urbani,[2],0.5
same,Binding of serum London to linear peptide (PEPSCAN-ELISA),[2],1.4
same,Binding of serum London to looped/cyclic peptides of protein N of SARS-CoV Urbani,[2],0.4
same,Binding of serum SARS-green to linear peptide (PEPSCAN-ELISA),[2],0.4
same,Binding of serum SARS-green to looped/cyclic peptides of protein N of SARS-CoV Urbani,[2],0.3
same,Binding of serum SARS-yellow to linear peptide (PEPSCAN-ELISA),[2],1.0
same,Binding of serum SARS-yellow to looped/cyclic peptides of protein N of SARS-CoV Urbani,[2],0.3
same,Binding of antibody 03-018 to linear peptides of the N protein of SARS-CoV Urbani,[3],0.1
same,Binding of antibody 03-018 to looped/cyclic peptides of the N protein of SARS-CoV Urbani,[3],0.2
same,Binding of a rabbit serum to linear peptides of protein N of SARS-CoV Urbani (Rabbit serum linear peptides),[4],0.2
same,Binding of a rabbit serum to looped/cyclic peptides of protein N of SARS-CoV Urbani (Rabbit serum looped peptides),[4],0.5
